Reference: ChEMBL document CHEMBL1121849, “Synthetic antagonists of in vivo antidiuretic and vasopressor responses to arginine-vasopressin” (J Med Chem, 1981)
Starred links: 1 amine or outer side, 2 acyl side, 3 side chain; linkers in the order of their positions; H or OH if unused. Positions of bridges follow the written chain, without caps; N, C: chain ends. Non-standard residues stand in square brackets, D forms with d. Residues, ends and D or L forms follow the SMILES beside them. *: point of attachment. X1 = O=C(CC1(S[*:2])CCCCC1)[*:1]; iPr = CC(C)*

Legend:
Rattus norvegicus [1] = experiment: Tested in vivo for anti-vasopressor potency injected intraperitoneally in phenoxybenzamine-treated rats under urethane anesthesia; format: functional
Rattus norvegicus [2] = experiment: Tested in vivo for antidiuretic potency injected intraperitoneally in rats under ethanol anesthesia; format: ADME, organism-based, Urine; conditions: ip
[3] = In vivo antidiuretic antagonistic activity expressed as negative logarithm of the effective dose divided by the estimated volume of distribution (67 mL/kg).; format: ADME, organism-based; conditions: Urine; read-out: pA2 (converted)
Rattus norvegicus [4] = experiment: In vivo anti-vasopressor antagonistic activity expressed as negative logarithm of the effective dose divided by the estimated volume of distribution (67 mL/kg).; format: ADME, organism-based; conditions: read-out: pA2 (converted)

SMILES	ED (Rattus norvegicus [1]) [nM/kg]	ED (Rattus norvegicus [2]) [nM/kg]	Kb [3] [nM]	Kb (Rattus norvegicus [4]) [nM]
COc1ccc(C[C@@H]2NC(=O)CC3(CCCCC3)SSC[C@@H](C(=O)N3CCC[C@H]3C(=O)N[C@@H](CCCN=C(N)N)C(=O)NCC(N)=O)NC(=O)[C@H](CC(N)=O)NC(=O)[C@H](C(C)C)NC(=O)[C@H](Cc3ccccc3)NC2=O)cc1 (Y(Me)FVNCPRG-NH2; linker N-5 via X1) [listing 1 of 2 here]	0.29	–	–	–
CCCOc1ccc(C[C@@H]2NC(=O)CC3(CCCCC3)SSC[C@@H](C(=O)N3CCC[C@H]3C(=O)N[C@H](CCCN=C(N)N)C(=O)NCC(N)=O)NC(=O)[C@H](CC(N)=O)NC(=O)[C@H](C(C)C)NC(=O)[C@H](Cc3ccccc3)NC2=O)cc1 [listing 1 of 2 here]	–	14	214	13.8
COc1ccc(C[C@@H]2NC(=O)CC3(CCCCC3)SSC[C@@H](C(=O)N3CCC[C@H]3C(=O)N[C@H](CCCN=C(N)N)C(=O)NCC(N)=O)NC(=O)[C@H](CC(N)=O)NC(=O)[C@H](C(C)C)NC(=O)[C@H](Cc3ccccc3)NC2=O)cc1 (Y(Me)FVNCP[dR]G-NH2; linker N-5 via X1) [listing 1 of 2 here]	0.28	–	–	–
CCOc1ccc(C[C@@H]2NC(=O)CC3(CCCCC3)SSC[C@@H](C(=O)N3CCC[C@H]3C(=O)N[C@@H](CCCN=C(N)N)C(=O)NCC(N)=O)NC(=O)[C@H](CC(N)=O)NC(=O)[C@H](C(C)C)NC(=O)[C@H](Cc3ccccc3)NC2=O)cc1 (Y(Et)FVNCPRG-NH2; linker N-5 via X1) [listing 1 of 2 here]	0.49	–	–	–
COc1ccc(C[C@@H]2NC(=O)CC3(CCCCC3)SSC[C@@H](C(=O)N3CCC[C@H]3C(=O)N[C@H](CCCN=C(N)N)C(=O)NCC(N)=O)NC(=O)[C@H](CC(N)=O)NC(=O)[C@H](C(C)C)NC(=O)[C@H](Cc3ccccc3)NC2=O)cc1 (Y(Me)FVNCP[dR]G-NH2; linker N-5 via X1) [listing 2 of 2 here]	–	15	209	3.63
CCOc1ccc(C[C@@H]2NC(=O)CC3(CCCCC3)SSC[C@@H](C(=O)N3CCC[C@H]3C(=O)N[C@H](CCCN=C(N)N)C(=O)NCC(N)=O)NC(=O)[C@H](CC(N)=O)NC(=O)[C@H](C(C)C)NC(=O)[C@H](Cc3ccccc3)NC2=O)cc1 (Y(Et)FVNCP[dR]G-NH2; linker N-5 via X1) [listing 1 of 2 here]	0.34	–	–	–
CC(C)Oc1ccc(C[C@@H]2NC(=O)CC3(CCCCC3)SSC[C@@H](C(=O)N3CCC[C@H]3C(=O)N[C@@H](CCCN=C(N)N)C(=O)NCC(N)=O)NC(=O)[C@H](CC(N)=O)NC(=O)[C@H](C(C)C)NC(=O)[C@H](Cc3ccccc3)NC2=O)cc1 (Y(iPr)FVNCPRG-NH2; linker N-5 via X1) [listing 1 of 2 here]	0.31	–	–	–
CCCOc1ccc(C[C@@H]2NC(=O)CC3(CCCCC3)SSC[C@@H](C(=O)N3CCC[C@H]3C(=O)N[C@@H](CCCN=C(N)N)C(=O)NCC(N)=O)NC(=O)[C@H](CC(N)=O)NC(=O)[C@H](C(C)C)NC(=O)[C@H](Cc3ccccc3)NC2=O)cc1 [listing 1 of 2 here]	–	3.5	51.3	6.03
CC(C)Oc1ccc(C[C@@H]2NC(=O)CC3(CCCCC3)SSC[C@@H](C(=O)N3CCC[C@H]3C(=O)N[C@@H](CCCN=C(N)N)C(=O)NCC(N)=O)NC(=O)[C@H](CC(N)=O)NC(=O)[C@H](C(C)C)NC(=O)[C@H](Cc3ccccc3)NC2=O)cc1 (Y(iPr)FVNCPRG-NH2; linker N-5 via X1) [listing 2 of 2 here]	–	3.6	47.9	4.37
CCCOc1ccc(C[C@@H]2NC(=O)CC3(CCCCC3)SSC[C@@H](C(=O)N3CCC[C@H]3C(=O)N[C@@H](CCCN=C(N)N)C(=O)NCC(N)=O)NC(=O)[C@H](CC(N)=O)NC(=O)[C@H](C(C)C)NC(=O)[C@H](Cc3ccccc3)NC2=O)cc1 [listing 2 of 2 here]	0.4	–	–	–
CCOc1ccc(C[C@@H]2NC(=O)CC3(CCCCC3)SSC[C@@H](C(=O)N3CCC[C@H]3C(=O)N[C@@H](CCCN=C(N)N)C(=O)NCC(N)=O)NC(=O)[C@H](CC(N)=O)NC(=O)[C@H](C(C)C)NC(=O)[C@H](Cc3ccccc3)NC2=O)cc1 (Y(Et)FVNCPRG-NH2; linker N-5 via X1) [listing 2 of 2 here]	–	1.9	26.9	6.92
CC(C)Oc1ccc(C[C@@H]2NC(=O)CC3(CCCCC3)SSC[C@@H](C(=O)N3CCC[C@H]3C(=O)N[C@H](CCCN=C(N)N)C(=O)NCC(N)=O)NC(=O)[C@H](CC(N)=O)NC(=O)[C@H](C(C)C)NC(=O)[C@H](Cc3ccccc3)NC2=O)cc1 (Y(iPr)FVNCP[dR]G-NH2; linker N-5 via X1) [listing 1 of 2 here]	–	8.5	132	3.89
CCCOc1ccc(C[C@@H]2NC(=O)CC3(CCCCC3)SSC[C@@H](C(=O)N3CCC[C@H]3C(=O)N[C@H](CCCN=C(N)N)C(=O)NCC(N)=O)NC(=O)[C@H](CC(N)=O)NC(=O)[C@H](C(C)C)NC(=O)[C@H](Cc3ccccc3)NC2=O)cc1 [listing 2 of 2 here]	1.1	–	–	–
CC(C)Oc1ccc(C[C@@H]2NC(=O)CC3(CCCCC3)SSC[C@@H](C(=O)N3CCC[C@H]3C(=O)N[C@H](CCCN=C(N)N)C(=O)NCC(N)=O)NC(=O)[C@H](CC(N)=O)NC(=O)[C@H](C(C)C)NC(=O)[C@H](Cc3ccccc3)NC2=O)cc1 (Y(iPr)FVNCP[dR]G-NH2; linker N-5 via X1) [listing 2 of 2 here]	0.28	–	–	–
COc1ccc(C[C@@H]2NC(=O)CC3(CCCCC3)SSC[C@@H](C(=O)N3CCC[C@H]3C(=O)N[C@@H](CCCN=C(N)N)C(=O)NCC(N)=O)NC(=O)[C@H](CC(N)=O)NC(=O)[C@H](C(C)C)NC(=O)[C@H](Cc3ccccc3)NC2=O)cc1 (Y(Me)FVNCPRG-NH2; linker N-5 via X1) [listing 2 of 2 here]	–	3.1	44.7	4.79
CCOc1ccc(C[C@@H]2NC(=O)CC3(CCCCC3)SSC[C@@H](C(=O)N3CCC[C@H]3C(=O)N[C@H](CCCN=C(N)N)C(=O)NCC(N)=O)NC(=O)[C@H](CC(N)=O)NC(=O)[C@H](C(C)C)NC(=O)[C@H](Cc3ccccc3)NC2=O)cc1 (Y(Et)FVNCP[dR]G-NH2; linker N-5 via X1) [listing 2 of 2 here]	–	5.7	79.4	–
